Data published in a melting point compilation (Tetko et al.; mined from patent text by program, amines drawn as free bases though some values may be those of a salt).

| SMILES | melting point [°C] |
| --- | --- |
| CN1C=CC(c2ccccc2)=C(O)C1 | 154 to 157 |
| CC(=O)NC1=C(N2CCN(Cc3ccccc3)CC2)C(=O)c2ccccc2C1=O | 153 to 155 |
| CC(=O)NC[C@H]1CN(c2ccc(-n3nccc3-c3ccc(F)cc3)c(F)c2)C(=O)O1 | 111 to 113 |
| CNC(=O)C(CC(=O)N(CC(=O)NO)CC(C)C)CC(C)C (centres undefined) | 60.5 to 61.5 |
| COC(=O)c1ccc(OC)c2c(C(F)(F)F)c(OC)ccc12 | 120 to 123 |
| Oc1ccc(-c2nn(CC3CCCCC3)c3c(C(F)(F)F)cccc23)c(O)c1 | 117 to 118 |
| O=C(NCCn1ccccc1=O)c1cccnc1 | 158 to 159 |
| COC(=O)CCC(C)C1CCC2C3CC=C4C(C)(C)C(O)CCC4(C)C3CCC12C (centres undefined) | 136 to 138 |
| CC(=O)N(CCCC(=O)O)C1CCCc2ccccc21 (centres undefined) | 141 to 142 |
| O=[N+]([O-])c1ccccc1S(=O)(=O)c1ccccc1 | 145 to 146 |
| CCc1nc(Cl)cc(NN)n1 | 147 to 150 |
| COc1cc2c(Nc3ccc(Sc4nccn4C)c(Cl)c3)c(C#N)cnc2cc1N(C)CCCN(C)C | 196 to 201 |
| CN(C)CCNC(=O)[C@H]1C[C@H](NC(=O)Cc2ccccc2)c2c(Cl)cc(Cl)cc2N1 (relative stereo) | 158 to 159 |
| CN1CCC(c2cc3cccc(O)c3o2)CC1 | 144 to 146 |
| CC(OC(=O)C1CC(=O)c2cc(F)ccc2O1)c1ccccc1 (single isomer, unassigned; (+)) | 98 |
| OC1=C(C(=S)Nc2ccccc2)c2nc3ccccc3n2CC1 | 224 to 227 |
| O=C1N(CCN2CCC(c3noc4cc(F)ccc34)CC2)CCN1c1ccccc1 | 158 to 160 |
| COC(=O)CCCc1cc2cc(Cl)ccc2n1S(=O)(=O)c1cccc(Cl)c1Cl | 115 to 117 |
| COc1cccc(N)c1C(=O)NC1CCN(C(C)CC(C(=O)N(C)C)(c2ccccc2)c2ccccc2)CC1O (centres undefined) | 175 |
| O=C(N[C@H]1CSc2ccc(C(F)(F)F)cc2NC1=O)OCc1ccccc1 | 120 to 123 |
| COC(=O)C(=O)Nc1cccc(OCCCBr)c1 | 90 to 91 |
| COc1cc(OC)c(C(=O)CCCCCl)cc1N | 87 to 88 |
| Cc1ccc2c3c(ccc2n1)OCC(CN1CC=C(c2c[nH]c4c(F)cccc24)CC1)O3 (centres undefined) | 205 to 210 |

| SMILES | melting point [°C] |
| --- | --- |
| CC(C)N1CC(c2cc(CCc3ccccc3)ncn2)=C(O)C1=O | 156 to 159 |
| CCCOc1ccccc1-c1nc2[nH]c(=O)c(=O)[nH]c2c(=O)[nH]1 | 312 to 315 |
| C=C(C)COc1ccc(C(=O)C=Cc2ccc(F)cc2)c2oc3ccccc3c(=O)c12 | 135 to 137 |
| CCOC(=O)CC1(CC)OCCc2c1[nH]c1ccccc21 (centres undefined) | < 80 |
| Cc1cn(N=Cc2ccccc2)cn1 | 91 to 93 |
| Nc1nc(C2CCN(C(=O)Cc3ccc4c(c3)OCO4)CC2)c2ccccc2n1 | 167 to 168 |
| C=CCSc1nsc(S)n1 | 107 to 108 |
| O=C(NCC1Cc2cccc(-c3ccc(F)cc3F)c2O1)OCc1ccccc1 (centres undefined) | 78 to 80 |
| N#Cc1c(N2CCCCC2)cc(-c2ccc(F)cc2)c2c1C(=O)c1ccccc1-2 | 152 to 154 |
| COc1cccc(CSc2ncccc2C(=O)O)c1 | 156 to 157 |
| COc1ccc2c(c1)C(=O)N(c1ccc3cnn(C)c3c1)C2 | 175 to 177 |
| Cc1cc(-c2noc(C(F)F)n2)cc(C)c1OCCCc1cncs1 | 78 to 80 |
| CCCCCCCCc1c(CC)nc2nc(Cl)nn2c1N | 202 to 203 |
| Cc1ccc(C)n1-c1ccc2ccc3c([nH]c(=O)c(=O)n3CC(=O)NCc3ccccc3)c2c1 | > 290 |
| CCOC(=O)C1=C(C)NC(c2cscn2)=NC1c1cccc(Cl)c1 (centres undefined) | 105 to 108 |
| CC1(C)C(=O)N(c2ccc(C#N)c(C(F)(F)F)c2)C(=O)N1CCCC(=O)O | 179 to 180 |
| CC(=O)Oc1ccc(-c2cnc(NC(=S)Cc3ccccc3)c(Cc3ccccc3)n2)cc1 | 143 to 145 |
| CCCCOc1ccc(Oc2ccc(C#CC(C)N(O)C(N)=O)o2)cc1 (centres undefined) | 128 to 129 |
| CC(C)c1noc2c1C(=O)N(C(C)(C)C)C2=O | 60 to 62 |
| FC(F)(F)c1ccc2nc(CN3CCN(c4ccc(Cl)cc4)CC3)cn2c1 | 128 to 135 |
| CC(C)(C)c1cc(C(=O)c2ccc([N+](=O)[O-])cc2)cc(C(C)(C)C)c1O | 178 to 180 |
| CCCN(CCC)Cc1csc(-c2ncn3c2[C@@H]2CCN2C(=O)c2c(Cl)cccc2-3)n1 | 200 to 201 |
| CN(C)c1ccc(C(=O)Nc2cc(C(=O)NCc3ccccc3)ccn2)cc1 | 160 to 165 |

| SMILES | melting point [°C] |
| --- | --- |
| C#CCNc1ccc(C(C)=O)cc1 | 97 to 100 |
| CCN(CC)CCNC(=O)c1cc(Cl)c(N)cc1OCC(=O)Cc1ccccc1 | 138 to 139 |
| Nc1nc2cc[nH]c2c(=O)[nH]1 | > 300 |
| CC(=O)OCC1=C(C(=O)OC(C)(C)C)N2C(=O)C(NC(=O)Cn3ccnc3S(C)(=O)=O)C2SC1 (centres undefined) | 164 |
| CCNC(=O)/C=C(C)/C=C/C=C(C)/C=C/c1c(C)cc(OC(F)(F)F)c(C)c1C | 198 to 200 |
| O=C(O)c1ccc2c(c1)S(=O)(=O)c1ccccc1C(=O)N2 | 337 to 340 |
| Cn1nc(-c2ccccc2S(N)(=O)=O)oc1=O | 168 to 173 |
| CC(Oc1ccccc1[N+](=O)[O-])C(=O)NCCO[N+](=O)[O-] (centres undefined) | 65 to 67 |
| CC(C)NS(=O)(=O)c1ccc(N2CCC(N3C(=O)OCc4ccccc43)CC2)c([N+](=O)[O-])c1 | 168 |
| O=CNC1CCN(c2ncc3ncnc(Nc4ccc(F)c(Cl)c4)c3n2)CC1 | 201 to 203 |
| CC1CCN(CCCC(=O)c2ccc3oc4ccc(C(=O)CCCN5CCC(C)CC5)cc4c3c2)CC1 | 72 to 73 |
| O=S(=O)(CCCN1CCN(c2ncc(F)cn2)CC1)c1ccc(F)cc1 | 132 to 134 |
| CCCc1nc2c(N)nc3ccccc3c2n1CCCCCS(C)(=O)=O | 179 to 181 |
| COCC(=O)Nc1nc2ccc(F)cc2s1 | 139 to 140 |
| CCCCc1oc2ccccc2c1-c1ncc(-c2ccc3c(Br)c(O)ccc3c2)o1 | 172 to 174 |
| COc1ccc(C=CC2=NNC(C)Cc3cc4c(cc32)OCO4)c(OC)c1 (centres undefined) | 176 to 178 |
| CN1CCCC(c2cccc3[nH]ccc23)C1 (centres undefined) | 151 |
| CN1CCN(C(=O)OC2c3ccccc3C(=O)N2c2ccc3ncccc3n2)CC1 (centres undefined) | 170 to 171 |
| O=C(Cc1ccccc1)Nc1cc(Cl)c(Cl)cc1[N+](=O)[O-] | 116 to 118 |
| CC(=O)Nc1ccc(/C=C/c2cc(/C=C/c3ccc4cc[nH]c4c3)[nH]n2)cc1 | > 300 |
| CC(C)NCC(O)COc1ccccc1-c1ccc(=O)[nH]n1 (centres undefined) | 150 to 152 |

The remaining lines, values ahead:

| melting point [°C] | SMILES |
| --- | --- |
| 264 to 267 | CN1CCN(c2cccc(-c3ccc(C#N)c(=O)[nH]3)c2)CC1 |
| 110 to 112 | CS(=O)(=O)N=C(NCCSCc1ccco1)Oc1ccccc1O |
| 296 to 298 | CCNC(=O)Nc1nc2cc(-c3cccnc3)cc(N3CCC(O)C3)n2n1 (centres undefined) |
| 92 | COC(=O)C(c1ccccc1)N1CCN(c2ccc([N+](=O)[O-])cc2)CC1 (centres undefined) |
| 94 | C=CCOC(=O)c1c(C)nc2c(c1N)c1ccccc1n2C |
| 87 to 89 | O=[N+]([O-])c1cc(F)ccc1N1CCc2ccccc21 |
| 120 to 121 | CC[C@H](N)C(=O)N1CCC[C@H]1C(=O)NCCCSC |
| 157 | COc1ccc(-c2sc3cc(O)ccc3c2Oc2ccc(OCCN3CCCCC3)cc2)cc1 |
| 176 to 178 | CCn1cc(C(=O)O)c(=O)c2cc(OC)c(C3CCCCC3)cc21 |
| 87 to 88 | CCOc1ccc(C)c(N(Cc2ccccc2)C(=O)C(C)(C)Br)c1 |
| 162 to 164 | CCCCNC(=O)N(Cc1ccccn1)C1CCN(c2ncnc3cc(OC)c(OC)cc23)CC1 |
| 174 to 176 | CC(C)(C)OC(=O)N1CCc2c(n(CCO)c3ccc(Cl)c(Cl)c23)CC1 |
| 159 | CO[C@H](C)C(=O)N[C@H]1CC[C@H](CCN2CCN(c3nccc4c3CCO4)CC2)CC1 |
| 217 to 220 | CC(C)n1nc(-c2nc(N)c(C(N)=O)nc2-c2ccccc2)ccc1=O |
| 233 to 237 | Cn1c(-c2ccc(-n3cnc4ccccc43)cc2)cnc1[C@H](Cc1ccccn1)N(C=O)c1cc2ccccc2[nH]1 |
| 210 to 212 | NC(=O)Nc1nc2n(n1)CCc1ccccc1-2 |

| melting point [°C] | SMILES |
| --- | --- |
| 134 | COc1ccc2c(c1)C(=O)C(=Cc1ccccc1)O2 |
| 112 | NCCNc1ccc(NCCO)cc1[N+](=O)[O-] |
| 199 to 200 | CS(=O)(=O)c1cccc(-n2ccc(=O)c(-c3ccnn3-c3ccccc3)n2)c1 |
| 230 to 232 | Nc1c(CC(=O)O)cccc1Nc1ccccc1Cl |
| 202 to 204 | CCc1nc(OC)c(NC(=O)N2CCN(c3cc(F)cc(F)c3)CC2)cc1C(=O)NC(C)C(=O)Nc1cc(CO)cc(Nc2c3ccccc3nc3ccccc23)c1 (centres undefined) |
| 120 to 122 | CC(=O)CC(=O)Nc1ccc(SC(F)(F)F)cc1 |
| 107 to 110 | CC(=NO)C(=O)C(C)(C)C |
| 61.9 to 63.8 | C[Si](C)(C)O[C@H]1C=C(S(=O)(=O)c2ccccc2)C=CCC1 |
| 152 to 153 | CCCc1c(OCCCCCCCOc2ccc(C(=O)c3cccc(C(=O)O)c3)cc2CCC(=O)O)ccc2c1OCCC2=O |
| 252 to 255 | Nc1cc2c(Nc3ccc(F)c(C(F)(F)F)c3)ncnc2cn1 |
| 201 | Clc1ccc(C2(Cn3ccnc3)OCC(COc3ccc(N4CCN(c5ccc(-n6cnnn6)cc5)CC4)cc3)O2)c(Cl)c1 (centres undefined) |
| 168 to 169 | Sc1ncc(CCCCc2ccccc2)[nH]1 |
| 68 to 70 | COc1ccc(C=CC(=O)C=Cc2ccc(OC)c(OC)c2)cc1OC |
| 110 | Oc1cccc(-c2nc3ccccc3s2)c1 |
| > 300 | Cc1[nH]c(/C=C2\C(=O)Nc3cc(NC(=O)c4cccn(-c5ccc(F)cc5)c4=O)ccc32)c(C)c1CC(=O)O |
| 127 to 128 | O=C(O)c1ccccc1NCCNc1ccccc1F |
